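Interpolation was linear, between the two tested concentrations surrounding the appropriate level; five concentrations were tested over 48 hours in 96-well plates. At the GI50, growth is halved.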 Activity calls are given as the source filed them. Rule as the data show it: active = GI50 up to about 1.1 µM and inactive = higher.
Experiments:
Test in all cases: growth of human tumour cells (NCI), 48 h
786-0 = system: 786-0
A549 = system: A549
ACHN = system: ACHN
BT-549 = system: BT-549
CAKI-1 = system: CAKI-1
CCRF-CEM = system: CCRF-CEM
COLO 205 = system: COLO 205
DU-145 = system: DU-145
EKVX = system: EKVX
HCC 2998 = system: HCC 2998
HCT-116 = system: HCT-116
HCT-15 = system: HCT-15
HOP-62 = system: HOP-62
HOP-92 = system: HOP-92
HT-29 = system: HT-29
Hs-578T = system: Hs-578T
IGROV-1 = system: IGROV-1
K562 = system: K562
KM12 = system: KM12
LOX IMVI = system: LOX IMVI
M14 = system: M14
MCF7 = system: MCF7
MDA-MB-231 = system: MDA-MB-231
MDA-MB-435 = system: MDA-MB-435
MDA-N = system: MDA-N
MOLT-4 = system: MOLT-4
Malme-3M = system: Malme-3M
NCI-H226 = system: NCI-H226
NCI-H23 = system: NCI-H23
NCI-H522 = system: NCI-H522
NCI/ADR-RES = system: NCI/ADR-RES
OVCAR-3 = system: OVCAR-3
OVCAR-4 = system: OVCAR-4
OVCAR-5 = system: OVCAR-5
OVCAR-8 = system: OVCAR-8
PC-3 = system: PC-3
RPMI-8226 = system: RPMI-8226
RXF 393 = system: RXF 393
SF-268 = system: SF-268
SF-295 = system: SF-295
SF-539 = system: SF-539
SK-MEL-28 = system: SK-MEL-28
SK-MEL-2 = system: SK-MEL-2
SK-OV-3 = system: SK-OV-3
SN12C = system: SN12C
SNB-19 = system: SNB-19
SNB-75 = system: SNB-75
SR = system: SR
SW-620 = system: SW-620
T47D = system: T47D
TK-10 = system: TK-10
U-251 = system: U-251
UACC-257 = system: UACC-257
UACC-62 = system: UACC-62
HL-60 = system: HL-60
NCI-H460 = system: NCI-H460
SK-MEL-5 = system: SK-MEL-5
UO-31 = system: UO-31

Cc1cc2c(c(C(=O)NCCC(=O)O)c1)Oc1c(cc(C)cc1C(=O)NCCC(=O)O)S2
GI50 (786-0): > 100 µM (inactive)
GI50 (A549): > 100 µM (inactive)
GI50 (ACHN): > 100 µM (inactive)
GI50 (BT-549): > 100 µM (inactive)
GI50 (CAKI-1): > 100 µM (inactive)
GI50 (CCRF-CEM): > 100 µM (inactive)
GI50 (COLO 205): > 100 µM (inactive)
GI50 (DU-145): > 100 µM (inactive)
GI50 (EKVX): > 100 µM (inactive)
GI50 (HCC 2998): > 100 µM (inactive)
GI50 (HCT-116): > 100 µM (inactive)
GI50 (HCT-15): > 100 µM
GI50 (HOP-62): > 100 µM (inactive)
GI50 (HOP-92): > 100 µM (inactive)
GI50 (HT-29): > 100 µM (inactive)
GI50 (Hs-578T): > 100 µM (inactive)
GI50 (IGROV-1): > 100 µM (inactive)
GI50 (K562): > 100 µM (inactive)
GI50 (KM12): > 100 µM (inactive)
GI50 (LOX IMVI): > 100 µM (inactive)
GI50 (M14): > 100 µM (inactive)
GI50 (MCF7): > 100 µM (inactive)
GI50 (MDA-MB-231): > 100 µM (inactive)
GI50 (MDA-MB-435): > 100 µM (inactive)
GI50 (MDA-N): > 100 µM (inactive)
GI50 (MOLT-4): > 100 µM (inactive)
GI50 (Malme-3M): > 100 µM (inactive)
GI50 (NCI-H226): > 100 µM (inactive)
GI50 (NCI-H23): > 100 µM (inactive)
GI50 (NCI-H522): > 100 µM (inactive)
GI50 (NCI/ADR-RES): > 100 µM (inactive)
GI50 (OVCAR-3): > 100 µM (inactive)
GI50 (OVCAR-4): > 100 µM (inactive)
GI50 (OVCAR-5): > 100 µM (inactive)
GI50 (OVCAR-8): > 100 µM (inactive)
GI50 (PC-3): > 100 µM (inactive)
GI50 (RPMI-8226): > 100 µM (inactive)
GI50 (RXF 393): > 100 µM (inactive)
GI50 (SF-268): > 100 µM (inactive)
GI50 (SF-295): > 100 µM (inactive)
GI50 (SF-539): > 100 µM (inactive)
GI50 (SK-MEL-28): > 100 µM (inactive)
GI50 (SK-MEL-2): > 100 µM (inactive)
GI50 (SK-OV-3): > 100 µM (inactive)
GI50 (SN12C): > 100 µM (inactive)
GI50 (SNB-19): > 100 µM (inactive)
GI50 (SNB-75): > 100 µM (inactive)
GI50 (SR): > 100 µM (inactive)
GI50 (SW-620): > 100 µM (inactive)
GI50 (T47D): > 100 µM (inactive)
GI50 (TK-10): > 100 µM (inactive)
GI50 (U-251): > 100 µM (inactive)
GI50 (UACC-257): > 100 µM (inactive)
GI50 (UACC-62): > 100 µM (inactive)

COc1ccc(Cc2nc3cc(Cl)ccc3o2)cc1
GI50 (786-0): 33.3 µM (inactive)
GI50 (A549): 35.4 µM (inactive)
GI50 (ACHN): 59 µM (inactive)
GI50 (BT-549): 19.4 µM (inactive)
GI50 (CAKI-1): 31 µM (inactive)
GI50 (CCRF-CEM): 12.2 µM (inactive)
GI50 (COLO 205): 28.4 µM (inactive)
GI50 (DU-145): 38.8 µM (inactive)
GI50 (EKVX): 27.2 µM (inactive)
GI50 (HCC 2998): 20.8 µM (inactive)
GI50 (HCT-116): 36.5 µM (inactive)
GI50 (HCT-15): 26.9 µM
GI50 (HL-60): 28.4 µM (inactive)
GI50 (HOP-62): > 100 µM (inactive)
GI50 (HOP-92): 41.2 µM (inactive)
GI50 (HT-29): 30.1 µM (inactive)
GI50 (Hs-578T): 49.2 µM (inactive)
GI50 (IGROV-1): 63 µM (inactive)
GI50 (K562): 34.4 µM (inactive)
GI50 (KM12): 27.7 µM (inactive)
GI50 (LOX IMVI): 23.5 µM (inactive)
GI50 (M14): 32.2 µM (inactive)
GI50 (MCF7): 27.9 µM (inactive)
GI50 (MDA-MB-231): 30.8 µM (inactive)
GI50 (MDA-MB-435): 22.1 µM (inactive)
GI50 (MDA-N): 35 µM (inactive)
GI50 (MOLT-4): 18.8 µM (inactive)
GI50 (Malme-3M): 26.7 µM (inactive)
GI50 (NCI-H226): 21.5 µM (inactive)
GI50 (NCI-H23): 29.2 µM (inactive)
GI50 (NCI-H460): 31.2 µM (inactive)
GI50 (NCI-H522): 21.2 µM (inactive)
GI50 (NCI/ADR-RES): 24.2 µM (inactive)
GI50 (OVCAR-3): 27 µM (inactive)
GI50 (OVCAR-4): 18.8 µM (inactive)
GI50 (OVCAR-5): 50.6 µM (inactive)
GI50 (OVCAR-8): 40.8 µM (inactive)
GI50 (PC-3): 32.3 µM (inactive)
GI50 (RPMI-8226): 21.3 µM (inactive)
GI50 (RXF 393): 22.6 µM (inactive)
GI50 (SF-268): 45.4 µM (inactive)
GI50 (SF-295): 31.3 µM (inactive)
GI50 (SF-539): 45.1 µM (inactive)
GI50 (SK-MEL-28): 37.2 µM (inactive)
GI50 (SK-MEL-2): 23.3 µM (inactive)
GI50 (SK-MEL-5): 14.5 µM (inactive)
GI50 (SK-OV-3): 47.3 µM (inactive)
GI50 (SN12C): 54.5 µM (inactive)
GI50 (SNB-19): 42.2 µM (inactive)
GI50 (SNB-75): 13.1 µM (inactive)
GI50 (SR): 23.7 µM (inactive)
GI50 (SW-620): 35.5 µM (inactive)
GI50 (T47D): 21.3 µM (inactive)
GI50 (TK-10): 35.7 µM (inactive)
GI50 (U-251): 27.1 µM (inactive)
GI50 (UACC-257): 24 µM (inactive)
GI50 (UACC-62): 60 µM (inactive)
GI50 (UO-31): 33.3 µM (inactive)
